How the values were obtained:
c-MYC [1] = assay: Cellular c-MYC Alpha Screen; assay type: cell-based; conditions: Homo sapiens; c-MYC alpha screen dose response, HCT-116 reporter cells, 24 h; read-out: Geomean pIC50 (converted)
Experimental: HCT-116 Firefly-luciferase reporter cells (BPS bioscience) were seeded in 96-well tissue-culture treated sterile plates (Greiner Bio-One) at 7.5e4 cells/mL in 100 μL complete growth media (McCoy's 5A+10% FBS, +1% Pen-Strep, +1% G418). Cells were incubated at 37° C. with 5% CO2 for 24 h then treated with 3× compound solution in 50 μL complete growth media for a final volume of 150 μL per well with 0.2% DMSO. After 24 h incubation at 37° C. with 5% CO2, plates were allowed to equilibrate to RT for 20 min; the media was then aspirated, and the plate washed once with 200 μL 1×PBS. Cells were then lysed by addition of 1× Alpha Screen lysis buffer (50 μL) from the Perkin Elmer alpha Screen c-MYC detection kit (Part number 6760611C). The lysate is then transferred to ice and advanced to the Alpha Screen detection assay or sealed with adhesive foil and stored at −80° C. for up to 2 weeks before use.
The alpha screen detection assay was then performed as per the vendors instructions. Briefly the acceptor bead mix was prepared as per vendors instructions. 30 ul of the cell lysate is transferred to a 96-well white assay plate. 15 ul of the acceptor mix was added to each well and incubated in the dark for at least one hour. Then the donor bead mix was prepared as per vendors instructions and 15 ul of this was added to the assay plate. The plate was then incubated at RT for one hour in the dark. The plate was then read in the SpectraMax i3x plate reader (Molecular Devices) using the alpha screen module (excitation wavelength 680 emission wavelength 615) and analyzed using GraphPad Prism 9 software.

c-MYC [2] = assay: In Vitro Translation Dose-Response Curves (In Vitro Multiple Point Translation Screening Assay); assay type: biochemical; conditions: IVT dose response curve
Experimental: HeLa S3 cell Preparation. HeLa S3 cells were grown essentially as described in Mikami 2010. Frozen aliquots of banked HeLa cells (ATCC #CCL-2.2) were thawed and diluted into agitated suspension culture in CD293 medium supplemented with 10% HI FBS, 1× GlutaMAX, and 1× Pen/Strep. Cells were expanded in suspension over 10 passages to inoculate 3×20 L wave bag bioreactors and cultured for approximately 48 h to a final density of 1.81×10^6 viable cells per mL. Cells were pelleted by centrifugation at 2500 RCF for 15 min at 4° C. Two 1 L pellets were combined in 32 sets and re-pelleted in 50 ml conical tubes, resulting in 32×10 mL cell pellets weighing approximately 10 g each. Final pellets were snap frozen in liquid nitrogen and stored at −80° C. (cell culture, harvesting, and cryo-preservation completed at LakePharma). Cell pellets were subsequently thawed at RT, resuspended in 15 mL wash buffer (35 mM HEPES-KOH, pH 7.5, 140 mM NaCl, and 11 mM glucose), then re-pelleted by centrifugation at 2500 RCF for 10 min at 4° C. The supernatant was discarded and the wash step repeated 2×. The pellets were resuspended each pellet in 10 mL in hypertonic extraction buffer (20 mM HEPES-KOH, pH 7.5, 45 mM potassium acetate, 45 mM KCl, 1.8 mM magnesium acetate, and 1 mM TCEP added directly before use). The cell suspension was transferred to a cell disruption vessel (Parr Instrument Company, model 4636, 1850 mL capacity) and incubated for 15 min on ice, then sealed under nitrogen (200 PSI) for 1.5 h. The cell homogenates were released through a needle valve and collected on ice, then diluted with 1/29 volume high potassium buffer (20 mM HEPES-KOH, pH 7.5, 945 mM potassium acetate, 945 mM KCl, 1.8 mM magnesium acetate, and 1 mM TCEP). The cell homogenates were then clarified by centrifugation at 2500 RCF for 10 min at 4° C. and the supernatant collected. The clarification step was repeated 3×. The resulting cell extracts (675 mL, 2.5 mg/mL total protein) were aliquoted and flash frozen in liquid nitrogen and stored at −80° C. until use.
Translation reactions were incubated for 20 min at 30° C. Nanoluciferase luminescence was measured by combining 2 μL of IVT reaction with 20 μL of prepared reagent from the Nanoglo assay kit (Promega). A negative control of 0.5% DMSO and positive control of 50 μM puromycin were used to define to assay window.
Dose response curve IVTs were performed similar to the single point IVT screening with the following changes. The desired concentration curves were plated into 384 well plates from DMSO stocks using a Tecan D300e dispenser. […] After reaction incubation and luminescence measurement, dose-response curves were fit to the data using Prism (Graphpad) or Collaborative Drug Discovery analysis programs.

[3] = tested on: HCT-116 Firefly-luciferase reporter cells; assay: Cellular c-MYC Reporter Assay; assay type: cell-based; conditions: Homo sapiens, HCT-116 Firefly-luciferase reporter cells, 24 h; for EC50: HCT-116, 24 h, read-out: Geomean pEC50 (converted); for IC50: untitled table following Table 8a, read-out: pIC50 (converted)
Method in brief: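 Reporter cells seeded at 5e4 cells/mL in McCoy's 5A with 10% FBS and G418, dosed after 4–6 h at 0.2% final DMSO. After 24 h at 37 °C, luciferase luminescence was read with ONE-Glo.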

[4] = tested on: prostate cancer cell lines PC-3 and 22 Rv1; conditions: cited from earlier work

Row | SMILES | IC50 [3] [nM] | also measured
1 | Cc1cccc2ccnc(N(C(=O)c3ccc(-n4nnc5cccnc54)cc3)[C@@H]3CCCNC3)c12 [Example 50, (R)-4-(3H-[1,2,3]triazolo[4,5-b]pyridin-3-yl)-N-(8-methylisoquinolin-1-yl)-N-(piperidin-3-yl)benzamide] | – | IC50 (c-MYC [1]): 158 nM; Geomean pIC50 (c-MYC [2]): 6.0 (n = 4)
2 | Cc1cccc2ccnc(N(C(=O)c3ccc(Nc4ncccn4)cc3)[C@@H]3CCCNC3)c12 [Example 51, (R)-N-(8-methylisoquinolin-1-yl)-N-(piperidin-3-yl)-4-(pyrimidin-2-ylamino)benzamide] | – | EC50 [3]: 251 nM; IC50 (c-MYC [1]): 1000 nM; Geomean pIC50 (c-MYC [2]): 4.8 (n = 2)
3 | Cc1cccc2ccnc(N(C(=O)c3ccc(-n4ccnn4)cc3)[C@@H]3CCCNC3)c12 [Example 54, (R)-N-(8-methylisoquinolin-1-yl)-N-(piperidin-3-yl)-4-(1H-1,2,3-triazol-1-yl)benzamide] | – | Geomean pIC50 (c-MYC [2]): 4.70 (n = 2)
4 | Cc1cccc2ccnc(N(C(=O)c3ccc(-n4c(C)nc5ccccc54)cc3)[C@@H]3CCCNC3)c12 [Example 57, (R)-4-(2-methyl-1H-benzo[d]imidazol-1-yl)-N-(8-methylisoquinolin-1-yl)-N-(piperidin-3-yl)benzamide] | – | EC50 [3]: 257 nM; Geomean pIC50 (c-MYC [2]): 4.6 (n = 2)
5 | Cc1cc(C2CCN(C(=O)N(c3nccc4cccc(C)c34)[C@@H]3CCCNC3)CC2)on1 [Example 243, (R)—N-(8-methylisoquinolin-1-yl)-4-(3-methylisoxazol-5-yl)-N-(piperidin-3-yl)piperidine-1-carboxamide] | 525 | IC50 (c-MYC [1]): 398 nM
6 | CCCc1nnn(-c2ccc(C(=O)N(c3nccc4cccc(C)c34)[C@@H]3CCCNC3)c(F)c2)n1 [Example 286, (R)-2-fluoro-N-(8-methylisoquinolin-1-yl)-N-(piperidin-3-yl)-4-(5-propyl-2H-tetrazol-2-yl) benzamide] | 195 | –
7 | Cc1cccc2ccnc(N(C(=O)N3CC=C(c4ccccc4)CC3)[C@@H]3CCCNC3)c12 [Example 287, (R)—N-(8-methylisoquinolin-1-yl)-4-phenyl-N-(piperidin-3-yl)-3,6-dihydropyridine-1(2H)-carboxamide] | 5890 | –
8 | Cc1cccc2ccnc(N(C(=O)N3CCC(c4cc(C(N)=O)no4)CC3)[C@@H]3CCCNC3)c12 [Example 288, (R)-5-(1-((8-methylisoquinolin-1-yl)(piperidin-3-yl)carbamoyl)piperidin-4-yl)isoxazole-3-carboxamide] | 1350 | –
9 | O=C(c1ccc(-n2nnc3cccnc32)cc1F)N(c1ncccc1/C=C/CO)[C@@H]1CCCNC1 [Example 289, (R,E)-4-(3H-[1,2,3]triazolo[4,5-b]pyridin-3-yl)-2-fluoro-N-(3-(3-hydroxyprop-1-en-1-yl)pyridin-2-yl)-N-(piperidin-3-yl)benzamide] | > 5890 | –
10 | Cc1cccc2ccnc(N(C(=O)c3ccc(Nc4ncco4)cc3F)[C@@H]3CCCNC3)c12 [Example 290, (R)-2-fluoro-N-(8-methylisoquinolin-1-yl)-4-(oxazol-2-ylamino)-N-(piperidin-3-yl) benzamide] | 3390 | –
11 | O=C(c1ccc(-c2cccc3cnccc23)cc1F)N(c1cc2ccccc2cn1)[C@@H]1CCCNC1 [Example 291, (R)-2-fluoro-N-(isoquinolin-3-yl)-4-(isoquinolin-5-yl)-N-(piperidin-3-yl)benzamide] | 1260 | –
12 | Cc1cccc2ccnc(N(C(=O)c3ccc(Nc4cccc(=O)[nH]4)cc3F)[C@@H]3CCCNC3)c12 [Example 292, (R)-2-fluoro-N-(8-methylisoquinolin-1-yl)-4-((6-oxo-1,6-dihydropyridin-2-yl)amino)-N-(piperidin-3-yl)benzamide] | > 20000 | –
13 | Cc1cccc2ccnc(N(C(=O)c3ccc(-n4nnc5ccc(C(=O)O)nc54)cc3F)[C@@H]3CCCNC3)c12 [Example 293, (R)-3-(3-fluoro-4-((8-methylisoquinolin-1-yl)(piperidin-3-yl)carbamoyl)phenyl)-3H-[1,2,3]triazolo[4,5-b]pyridine-5-carboxylic acid] | > 20000 | –
14 | Cc1cccc2ccnc(N(C(=O)c3ccc(-c4cnn(C)c4C(=O)O)cc3)[C@@H]3CCCNC3)c12 [Example 294, 2-methyl-4-[4-[(8-methyl-1-isoquinolyl)-[(3R)-3-piperidyl]carbamoyl]phenyl] pyrazole-3-carboxylic acid] | > 10000 | –
15 | O=C(O)/C=C/c1ccc2ccnc(N(C(=O)c3ccc(-n4nnc5cccnc54)cc3F)[C@@H]3CCCNC3)c2c1 [Example 295, (R,E)-3-(1-(4-(3H-[1,2,3]triazolo[4,5-b]pyridin-3-yl)-2-fluoro-N-(piperidin-3-yl)benzamido)isoquinolin-7-yl)acrylic acid] | > 20000 | –
16 | Cc1cccc2ccnc(N(C(=O)c3ccc(-c4n[nH]c5c4CNCC5)cc3F)[C@@H]3CCCNC3)c12 [Example 296, (R)-2-fluoro-N-(8-methylisoquinolin-1-yl)-N-(piperidin-3-yl)-4-(4,5,6,7-tetrahydro-1H-pyrazolo[4,3-c]pyridin-3-yl)benzamide] | > 20000 | –
17 | Cc1cccc2ccnc(N(C(=O)N3CCC(O)(c4ccccc4OCc4ccccc4)CC3)[C@@H]3CCCNC3)c12 [Example 297, (R)-4-(2-(benzyloxy)phenyl)-4-hydroxy-N-(8-methylisoquinolin-1-yl)-N-(piperidin-3-yl)piperidine-1-carboxamide] | 7760 | –
18 | Cc1cccc2ccnc(N(C(=O)c3ccc(-n4nnc(C(C)Cl)n4)cc3F)[C@@H]3CCCNC3)c12 (stereo partly drawn) [Example 298, 4-(5-(1-chloroethyl)-2H-tetrazol-2-yl)-2-fluoro-N-(8-methylisoquinolin-1-yl)-N—((R)-piperidin-3-yl) benzamide] | 263 | –
19 | Cc1cccc2ccnc(N(C(=O)N3CC=C(c4ccccc4OCc4ccccc4)CC3)[C@@H]3CCCNC3)c12 [Example 299, (R)-4-(2-(benzyloxy)phenyl)-N-(8-methylisoquinolin-1-yl)-N-(piperidin-3-yl)-3,6-dihydropyridine-1(2H)-carboxamide] | 5500 | –
20 | O=C(c1ccc(-n2nnc3cccnc32)cc1F)N(c1nccc2ccncc12)[C@@H]1CCCNC1 [Example 300, (R)-4-(3H-[1,2,3]triazolo[4,5-b]pyridin-3-yl)-2-fluoro-N-(2,7-naphthyridin-1-yl)-N-(piperidin-3-yl)benzamide] | > 20000 | –
21 | Cc1cccc2ccnc(N(C(=O)C3CCN(C=O)CC3)[C@@H]3CCCNC3)c12 [Example 301, (R)-1-formyl-N-(8-methylisoquinolin-1-yl)-N-(piperidin-3-yl) piperidine-4-carboxamide] | > 10000 | –
22 | C=CCc1ccc(O)c(-c2ccc(O)c(CC=C)c2)c1 [Honokiol] | – | anti-cancer activity against prostate cancer cell lines [4]: significant anti-cancer activity; levels of total and/or phosphorylated c-MYC protein and its mRNA expression [4]: marked decrease

Source: US20240400555A1 (Initial Therapeutics, Inc., priority 2023, published 2024)
